Data on 13 compounds can be found in PubChem BioAssay (NCI).

Where “and” joins values, the source holds several entries; their conditions need not be identical. Identical values can stand only once.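 Briefly, cells in 96-well plates were exposed to five compound concentrations for 48 h, and endpoints were estimated by linear interpolation. GI50: concentration for 50% inhibition of growth. TGI marks complete inhibition of growth.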 Some results are limits rather than exact numbers.

Among the test systems are A549 NSCLC; DMS 114 small cell lung; DU-145 prostate; EKVX NSCLC; HCC-2998 colon; HS 578T breast; LXFL 529 NSCLC; NCI-H460 lung; T-47D breast; UACC-62 melanoma.
Common to all, as to assay: growth of human tumour cells (NCI), 48 h

For `COc1cc(-c2oc3c(OC)c(OC)cc(O)c3c(=O)c2OC)ccc1O`, the TGI with A549 NSCLC was > 50 µM; with DMS 114 small cell lung it was > 100 µM; in the assay with DU-145 prostate it was > 50 µM; with EKVX NSCLC, > 50 µM; with HCC-2998 colon, > 100 µM; in the assay on HS 578T breast it was 29.7 µM. Further, the TGI in the assay with LXFL 529 NSCLC was > 100 µM; in the assay with NCI-H460 lung, > 100 µM; with T-47D breast it was 34.4 µM; with UACC-62 melanoma, > 100 µM. The GI50 is > 100 µM and 31 µM in the assay with HCC-2998 colon; 4 µM and 8.51 µM in the assay on NCI-H460 lung.

On to `Cc1cc(O)c2c(c1)C(=O)c1cc(O)cc(O)c1C2=O`, for which the TGI in the assay with A549 NSCLC is > 100 µM; in the assay with DMS 114 small cell lung, > 100 µM; in the assay with DU-145 prostate, > 100 µM; in the assay with EKVX NSCLC it was > 100 µM; in the assay on HCC-2998 colon, > 100 µM; with HS 578T breast it was 82.4 µM. For the same compound, the TGI was 85.3 µM in the assay on LXFL 529 NSCLC, > 78.4 µM in the assay on NCI-H460 lung, > 100 µM with T-47D breast and 38.1 µM with UACC-62 melanoma. The GI50 was 46.2 µM in the assay on DU-145 prostate; 24.3 µM with EKVX NSCLC; 26.2 µM in the assay on HS 578T breast; 21.2 µM with T-47D breast; 11.2 µM with UACC-62 melanoma.

With `CC[C@@]1(O)C(=O)OCc2c1cc1n(c2=O)Cc2cc3cc(OC)ccc3nc2-1`, the GI50 with A549 NSCLC is 0.0672 µM and 0.0109 µM; in the assay with DU-145 prostate, 0.0219 µM; in the assay on EKVX NSCLC, 1.1 µM; with HCC-2998 colon, 0.147 µM and 0.0656 µM; in the assay on NCI-H460 lung it was 0.00433 µM; in the assay with T-47D breast, 0.0185 µM. Further, the TGI was 2.92 µM with A549 NSCLC; 1.02 µM in the assay on DMS 114 small cell lung; 0.041 µM with DU-145 prostate; > 100 µM with EKVX NSCLC; 0.29 µM and 1.09 µM and 0.388 µM with HCC-2998 colon; 2.51 µM with LXFL 529 NSCLC. Also, the TGI in the assay with NCI-H460 lung is 0.152 µM and 0.211 µM and 0.188 µM.

Consider `CC(=O)O[C@H]1[C@@H]2[C@@H]3[C@@H](C[C@H]1C)[C@@H](C)CO[C@@]1(C)CC/C=C(/C)C[C@@H]2O[C@@H]31`, for which the TGI with A549 NSCLC, in the assay on DMS 114 small cell lung, with EKVX NSCLC, in the assay with HCC-2998 colon, with LXFL 529 NSCLC and with NCI-H460 lung was > 100 µM each time. Further, the TGI in the assay on UACC-62 melanoma is > 100 µM.

For the compound `CCOP(=O)(CC(=O)C1=C(O)C(CCCNC(=O)OC(C)(C)C)N(Cc2ccc(OC)c(OC)c2)C1=O)OCC` (configuration not stated), the TGI in the assay on A549 NSCLC, in the assay with DMS 114 small cell lung, with EKVX NSCLC, in the assay on HCC-2998 colon, in the assay with LXFL 529 NSCLC and in the assay on NCI-H460 lung was > 100 µM each time. For the same compound, in the assay on UACC-62 melanoma, the TGI was > 100 µM.

With `CCc1cccc(CC)c1NC(=S)NC(=O)c1ccc(Br)cc1`, the TGI in the assay with A549 NSCLC, in the assay with DMS 114 small cell lung, with DU-145 prostate, in the assay with EKVX NSCLC, in the assay on HCC-2998 colon and in the assay on HS 578T breast was > 100 µM each time. Further, the TGI with LXFL 529 NSCLC is > 100 µM; with NCI-H460 lung it was 41.6 µM; in the assay on T-47D breast it was > 100 µM; with UACC-62 melanoma, > 100 µM.

With `O=C([O-])c1ccc2c(c1)-c1nc-2nc2[n-]c(nc3nc(nc4[n-]c(n1)c1ccc(C(=O)[O-])cc41)-c1cc(C(=O)[O-])ccc1-3)c1ccc(C(=O)[O-])cc21.[Fe+2]`, the GI50 in the assay on A549 NSCLC is > 50 µM; with DMS 114 small cell lung it was > 23.2 µM; in the assay with EKVX NSCLC, > 50 µM; in the assay on HCC-2998 colon, > 50 µM; with LXFL 529 NSCLC, > 41.6 µM; in the assay on NCI-H460 lung, > 50 µM. In addition, the GI50 in the assay with UACC-62 melanoma is > 50 µM. Moreover, the TGI was > 50 µM in the assay with A549 NSCLC; > 32.6 µM with DMS 114 small cell lung; > 50 µM in the assay with EKVX NSCLC; > 50 µM with HCC-2998 colon; > 50 µM in the assay on LXFL 529 NSCLC; > 50 µM in the assay on NCI-H460 lung. The TGI with UACC-62 melanoma is > 50 µM.

On to `CCC(=O)OC1CCn2c1nc1c2C(=O)C(C)=C(N2CC2)C1=O` (configuration not stated), for which the GI50 is 0.0233 µM with A549 NSCLC, 0.305 µM in the assay on EKVX NSCLC, 0.0141 µM in the assay on NCI-H460 lung and 0.0231 µM in the assay on UACC-62 melanoma. Also, the TGI is 0.522 µM in the assay with DMS 114 small cell lung; 0.0503 µM in the assay with DU-145 prostate; 1.04 µM and 0.504 µM in the assay with EKVX NSCLC; 0.214 µM and 0.18 µM in the assay on HCC-2998 colon; 0.78 µM in the assay with HS 578T breast; 0.35 µM in the assay on LXFL 529 NSCLC. Besides, the TGI in the assay on NCI-H460 lung is 0.0452 µM and 0.124 µM; in the assay with UACC-62 melanoma it was 0.0577 µM and 0.127 µM.

Turning to `COC(=O)C1=C(C(=O)OC)C23C=CC=CC24C(C(=O)OC)=C(C(=O)OC)C4C1C3` (configuration not stated), the TGI in the assay with A549 NSCLC, in the assay on DMS 114 small cell lung, in the assay with EKVX NSCLC, with HCC-2998 colon, with LXFL 529 NSCLC and in the assay on NCI-H460 lung was > 100 µM throughout. Besides, the TGI in the assay on UACC-62 melanoma was > 100 µM.

In the case of `COC(=O)c1ccccc1NC(=O)C(=O)CC(=O)c1ccccc1NC1=CC(=O)C(=O)c2ccccc21`, the TGI in the assay with A549 NSCLC is 41 µM; with DMS 114 small cell lung, 5.33 µM; in the assay on DU-145 prostate, > 53.8 µM; in the assay on EKVX NSCLC it was > 100 µM; with HCC-2998 colon it was 66.7 µM; in the assay with HS 578T breast, 37.2 µM. For the same compound, the TGI was 27.2 µM in the assay on LXFL 529 NSCLC, 65.4 µM in the assay on NCI-H460 lung, > 95 µM in the assay on T-47D breast and 24.5 µM in the assay on UACC-62 melanoma.

On to `N#C/C(=C/c1cccnc1)C(=O)c1ccccc1`, for which the TGI in the assay on A549 NSCLC, with DMS 114 small cell lung, with EKVX NSCLC, in the assay with HCC-2998 colon, in the assay with LXFL 529 NSCLC and in the assay on NCI-H460 lung was > 100 µM throughout. In addition, the TGI with UACC-62 melanoma was > 100 µM.

Take `CC1CCCC(C(O)CC2CC(=O)N(c3ccccc3)C(=O)C2)C1=O` (configuration not stated): the TGI in the assay on A549 NSCLC, in the assay with DMS 114 small cell lung, in the assay on EKVX NSCLC, with HCC-2998 colon, with LXFL 529 NSCLC and in the assay with NCI-H460 lung was > 100 µM throughout. Further, the TGI with UACC-62 melanoma is > 100 µM.

Turning to `CO[C@H]1[C@H](O)[C@H](O[C@H]2CC[C@@]3(C)[C@H](CC[C@@H]4[C@@H]3CC[C@]3(C)[C@@H](C5=CC(=O)OC5)CC[C@]43O)C2)O[C@@H](C)[C@@H]1O`, the TGI is 0.00078 µM with A549 NSCLC; 0.00335 µM in the assay with DMS 114 small cell lung; < 0.0001 µM in the assay with DU-145 prostate; 0.00148 µM in the assay on EKVX NSCLC; 0.0584 µM and 0.0399 µM in the assay with HCC-2998 colon; < 0.0001 µM in the assay with HS 578T breast. Besides, the TGI with LXFL 529 NSCLC was 0.00658 µM and 0.0128 µM; in the assay on NCI-H460 lung it was 0.00151 µM; with T-47D breast it was 0.0194 µM; in the assay with UACC-62 melanoma, 0.00312 µM and < 0.0104 µM. For the same compound, in the assay with T-47D breast, the GI50 was 0.00395 µM.
